{
  "source": "paper PMC2196011",
  "about": "(The Journal of Experimental Medicine, 2002)",
  "target": "T1, GST-PfNSMase (PfNSM product; plasmodial SM/LCPL-PLC) (Plasmodium falciparum, UniProt Q8WSF5)",
  "T1 sequence (Q8WSF5 1-393)": "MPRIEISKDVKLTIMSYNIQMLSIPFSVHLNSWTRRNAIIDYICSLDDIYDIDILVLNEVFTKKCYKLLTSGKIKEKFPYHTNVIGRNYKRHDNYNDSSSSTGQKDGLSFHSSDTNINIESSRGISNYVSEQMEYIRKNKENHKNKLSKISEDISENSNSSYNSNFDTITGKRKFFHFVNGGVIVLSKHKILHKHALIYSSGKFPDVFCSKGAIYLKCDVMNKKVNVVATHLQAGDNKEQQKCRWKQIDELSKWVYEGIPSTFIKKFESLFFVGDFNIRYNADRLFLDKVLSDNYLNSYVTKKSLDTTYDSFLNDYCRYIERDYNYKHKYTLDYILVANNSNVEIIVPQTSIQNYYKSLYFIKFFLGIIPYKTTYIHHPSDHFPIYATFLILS",
  "assay": "competition of […]lysoPtdCho hydrolysis, E. coli membrane fraction",
  "format": "biochemical",
  "conditions": "10 μM [palmitoyl-1-14C]lysoPtdCho; detergent-free; 10 mM MgCl2; pH 7.5; 37°C",
  "data": [
    {"smiles": "CCCCCCCCCCCCCCCCOC[C@@H](O)COP(=O)([O-])OCC[N+](C)(C)C", "note": "[lysoPAF]", "values": [
      {"measurement": "% of control activity", "result": "The activity was moderately competed by PAF and lysoPAF"}
    ]},
    {"smiles": "CCCCCCCCCCCCC/C=C/[C@@H](O)[C@@H](N)COP(=O)([O-])OCC[N+](C)(C)C", "note": "[sphingosylphosphocholine]", "values": [
      {"measurement": "% of control activity", "result": "lysoPtdCho was strongly competed by sphingosylphosphocholine"}
    ]}
  ]
}
